System: Wheat and Barley and test plant species
Assay: Post-emergent Test III, herbicidal activity in wheat and barley (Table 17; visual injury, GR20/GR50/GR80/GR90)
Type: in vivo
Conditions: 21 d; for Visual Growth Reduction (%) 21 Days After Application, CIRAR / Visual Growth Reduction (%) 21 Days After Application, GALAP / Visual Growth Reduction (%) 21 Days After Application, HORVS / Visual Growth Reduction (%) 21 Days After Application, KCHSC / Visual Growth Reduction (%) 21 Days After Application, LAMPU / Visual Growth Reduction (%) 21 Days After Application, MATCH / Visual Growth Reduction (%) 21 Days After Application, PAPRH / Visual Growth Reduction (%) 21 Days After Application, SASKR / Visual Growth Reduction (%) 21 Days After Application, SINAR / Visual Growth Reduction (%) 21 Days After Application, TRZAS / Visual Growth Reduction (%) 21 Days After Application, VERPE / Visual Growth Reduction (%) 21 Days After Application, VIOTR: post-emergent
Method: Post-emergent Test III. Seeds of the desired test plant species were planted in Sun Gro MetroMix® 306 planting mixture, which typically has a pH of 6.0 to 6.8 and an organic matter content of about 30 percent, in plastic pots with a surface area of 103.2 square centimeters (cm^2). When required to ensure good germination and healthy plants, a fungicide treatment and/or other chemical or physical treatment was applied. The plants were grown for 7-36 days (d) in a greenhouse with an approximate 14 hour (h) photoperiod which was maintained at about 18° C. during the day and 17° C. during the night. Nutrients and water were added on a regular basis and supplemental lighting was provided with overhead metal halide 1000-Watt lamps as necessary. The plants were employed for testing when they reached the second or third true leaf stage.
A weighed amount, determined by the highest rate to be tested, of each test compound was placed in a 25 mL glass vial and was dissolved in 4 mL of a 97:3 v/v mixture of acetone and DMSO to obtain concentrated stock solutions. […] The concentrated stock solutions obtained were diluted with 20 mL of an aqueous mixture containing acetone, water, isopropyl alcohol, DMSO, Agri-Dex crop oil concentrate, and X-77 surfactant in a 48:39:10:1.5:1.5:0.02 v/v ratio to obtain spray solutions containing the highest application rates. Additional application rates were obtained by serial dilution of 12 mL of the high rate solution into a solution containing 2 mL of 97:3 v/v mixture of acetone and DMSO and 10 mL of an aqueous mixture containing acetone, water, isopropyl alcohol, DMSO, Agri-Dex crop oil concentrate, and X-77 surfactant in a 48:39:10:1.5:1.5:0.02 v/v ratio to obtain 1/2×, 1/4×, 1/8× and 1/16× rates of the high rate. Compound requirements are based upon a 12 mL application volume at a rate of 187 liters per hectare (L/ha). Formulated compounds were applied to the plant material with an overhead Mandel track sprayer equipped with 8002E nozzles calibrated to deliver 187 L/ha over an application area of 0.503 square meters at a spray height of 18 inches (43 cm) above the average plant canopy height. Control plants were sprayed in the same manner with the solvent blank.
The treated plants and control plants were placed in a greenhouse as described above and watered by subirrigation to prevent wash-off of the test compounds. After 21 d, the condition of the test plants as compared with that of the untreated plants was determined visually and scored on a scale of 0 to 100 percent where 0 corresponds to no injury and 100 corresponds to complete kill. By applying the well-accepted probit analysis as described by J. Berkson in Journal of the American Statistical […], 48, 565 (1953) and by D. Finney in “Probit Analysis” Cambridge University Press (1952), the above data can be used to calculate GR20, GR50, GR80 and GR90 values, which are defined as growth reduction factors that correspond to the effective dose of herbicide required to kill or control 20 percent, 50 percent, 80 percent or 90 percent, respectively, of a target plant.

For `Nc1c(F)c(-c2ccc3cc[nH]c3c2F)nc(C(=O)O)c1Cl` [Compound 1.16, 4-Amino-3-chloro-5-fluoro-6-(7-fluoro-1H-indol-6-yl)picolinic acid], the “Visual Growth Reduction (%) 21 Days After Application, CIRAR” value (CIRAR, 17.5 g ai/ha) was “D (60-74)”, the “Visual Growth Reduction (%) 21 Days After Application, CIRAR” value (CIRAR, 35 g ai/ha) was “B (85-94)” and the “Visual Growth Reduction (%) 21 Days After Application, CIRAR” value (CIRAR, 70 g ai/ha) was “A (95-100)”. The “GR50, CIRAR” value (CIRAR, dose for 50 percent growth reduction, probit analysis) was 9 g ai/ha, the “GR80, CIRAR” value (CIRAR, dose for 80 percent growth reduction, probit analysis) was 25 g ai/ha and the “GR90, CIRAR” value (CIRAR, dose for 90 percent growth reduction, probit analysis) was 43 g ai/ha. The “Visual Growth Reduction (%) 21 Days After Application, GALAP” value (GALAP, 17.5 g ai/ha) was “F (30-44)”, the “Visual Growth Reduction (%) 21 Days After Application, GALAP” value (GALAP, 35 g ai/ha) was “E (45-59)” and the “Visual Growth Reduction (%) 21 Days After Application, GALAP” value (GALAP, 70 g ai/ha) was “A (95-100)”. The “GR50, GALAP” value (GALAP, dose for 50 percent growth reduction, probit analysis) was 26 g ai/ha, the “GR80, GALAP” value (GALAP, dose for 80 percent growth reduction, probit analysis) was 34 g ai/ha and the “GR90, GALAP” value (GALAP, dose for 90 percent growth reduction, probit analysis) was 40 g ai/ha. For the same compound, the “Visual Growth Reduction (%) 21 Days After Application, HORVS” value (HORVS, 17.5 g ai/ha) was “G (0-29)”, the “Visual Growth Reduction (%) 21 Days After Application, HORVS” value (HORVS, 35 g ai/ha) was “G (0-29)” and the “Visual Growth Reduction (%) 21 Days After Application, HORVS” value (HORVS, 70 g ai/ha) was “F (30-44)”. For the same compound, the “GR20, HORVS” value (HORVS, dose for 20 percent growth reduction, probit analysis) was 44 g ai/ha, the “Visual Growth Reduction (%) 21 Days After Application, KCHSC” value (KCHSC, 17.5 g ai/ha) was “C (75-84)” and the “Visual Growth Reduction (%) 21 Days After Application, KCHSC” value (KCHSC, 35 g ai/ha) was “B (85-94)”. The “Visual Growth Reduction (%) 21 Days After Application, KCHSC” value (KCHSC, 70 g ai/ha) was “A (95-100)”, the “GR50, KCHSC” value (KCHSC, dose for 50 percent growth reduction, probit analysis) was 7 g ai/ha and the “GR80, KCHSC” value (KCHSC, dose for 80 percent growth reduction, probit analysis) was 20 g ai/ha. For the same compound, the “GR90, KCHSC” value (KCHSC, dose for 90 percent growth reduction, probit analysis) was 39 g ai/ha, the “Visual Growth Reduction (%) 21 Days After Application, LAMPU” value (LAMPU, 17.5 g ai/ha) was “C (75-84)” and the “Visual Growth Reduction (%) 21 Days After Application, LAMPU” value (LAMPU, 35 g ai/ha) was “A (95-100)”. For the same compound, the “Visual Growth Reduction (%) 21 Days After Application, LAMPU” value (LAMPU, 70 g ai/ha) was “A (95-100)”, the “GR50, LAMPU” value (LAMPU, dose for 50 percent growth reduction, probit analysis) was 3 g ai/ha and the “GR80, LAMPU” value (LAMPU, dose for 80 percent growth reduction, probit analysis) was 10 g ai/ha. For the same compound, the “GR90, LAMPU” value (LAMPU, dose for 90 percent growth reduction, probit analysis) was 19 g ai/ha, the “Visual Growth Reduction (%) 21 Days After Application, MATCH” value (MATCH, 17.5 g ai/ha) was “B (85-94)” and the “Visual Growth Reduction (%) 21 Days After Application, MATCH” value (MATCH, 35 g ai/ha) was “A (95-100)”. For the same compound, the “Visual Growth Reduction (%) 21 Days After Application, MATCH” value (MATCH, 70 g ai/ha) was “A (95-100)”, the “GR50, MATCH” value (MATCH, dose for 50 percent growth reduction, probit analysis) was 3 g ai/ha and the “GR80, MATCH” value (MATCH, dose for 80 percent growth reduction, probit analysis) was 9 g ai/ha. For the same compound, the “GR90, MATCH” value (MATCH, dose for 90 percent growth reduction, probit analysis) was 16 g ai/ha, the “Visual Growth Reduction (%) 21 Days After Application, PAPRH” value (PAPRH, 17.5 g ai/ha) was “A (95-100)” and the “Visual Growth Reduction (%) 21 Days After Application, PAPRH” value (PAPRH, 35 g ai/ha) was “A (95-100)”. For the same compound, the “Visual Growth Reduction (%) 21 Days After Application, PAPRH” value (PAPRH, 70 g ai/ha) was “A (95-100)”, the “GR50, PAPRH” value (PAPRH, dose for 50 percent growth reduction, probit analysis) was 0.0004 g ai/ha and the “GR80, PAPRH” value (PAPRH, dose for 80 percent growth reduction, probit analysis) was 0.0004 g ai/ha. The “GR90, PAPRH” value (PAPRH, dose for 90 percent growth reduction, probit analysis) was 0.0004 g ai/ha, the “Visual Growth Reduction (%) 21 Days After Application, SASKR” value (SASKR, 17.5 g ai/ha) was “D (60-74)” and the “Visual Growth Reduction (%) 21 Days After Application, SASKR” value (SASKR, 35 g ai/ha) was “C (75-84)”. For the same compound, the “Visual Growth Reduction (%) 21 Days After Application, SASKR” value (SASKR, 70 g ai/ha) was “B (85-94)”, the “GR50, SASKR” value (SASKR, dose for 50 percent growth reduction, probit analysis) was 10 g ai/ha and the “GR80, SASKR” value (SASKR, dose for 80 percent growth reduction, probit analysis) was 28 g ai/ha. The “GR90, SASKR” value (SASKR, dose for 90 percent growth reduction, probit analysis) was 78 g ai/ha, the “Visual Growth Reduction (%) 21 Days After Application, SINAR” value (SINAR, 17.5 g ai/ha) was “B (85-94)” and the “Visual Growth Reduction (%) 21 Days After Application, SINAR” value (SINAR, 35 g ai/ha) was “A (95-100)”. The “Visual Growth Reduction (%) 21 Days After Application, SINAR” value (SINAR, 70 g ai/ha) was “A (95-100)”, the “GR50, SINAR” value (SINAR, dose for 50 percent growth reduction, probit analysis) was 5 g ai/ha and the “GR80, SINAR” value (SINAR, dose for 80 percent growth reduction, probit analysis) was 11 g ai/ha. For the same compound, the “GR90, SINAR” value (SINAR, dose for 90 percent growth reduction, probit analysis) was 17 g ai/ha, the “Visual Growth Reduction (%) 21 Days After Application, TRZAS” value (TRZAS, 17.5 g ai/ha) was “G (0-29)” and the “Visual Growth Reduction (%) 21 Days After Application, TRZAS” value (TRZAS, 35 g ai/ha) was “G (0-29)”. For the same compound, the “Visual Growth Reduction (%) 21 Days After Application, TRZAS” value (TRZAS, 70 g ai/ha) was “F (30-44)”, the “GR20, TRZAS” value (TRZAS, dose for 20 percent growth reduction, probit analysis) was 41 g ai/ha and the “Visual Growth Reduction (%) 21 Days After Application, VERPE” value (VERPE, 17.5 g ai/ha) was “A (95-100)”. For the same compound, the “Visual Growth Reduction (%) 21 Days After Application, VERPE” value (VERPE, 35 g ai/ha) was “A (95-100)”, the “Visual Growth Reduction (%) 21 Days After Application, VERPE” value (VERPE, 70 g ai/ha) was “A (95-100)” and the “GR50, VERPE” value (VERPE, dose for 50 percent growth reduction, probit analysis) was 0.0004 g ai/ha. The “GR80, VERPE” value (VERPE, dose for 80 percent growth reduction, probit analysis) was 0.05 g ai/ha, the “GR90, VERPE” value (VERPE, dose for 90 percent growth reduction, probit analysis) was 1 g ai/ha and the “Visual Growth Reduction (%) 21 Days After Application, VIOTR” value (VIOTR, 17.5 g ai/ha) was “E (45-59)”. The “Visual Growth Reduction (%) 21 Days After Application, VIOTR” value (VIOTR, 35 g ai/ha) was “D (60-74)”, the “Visual Growth Reduction (%) 21 Days After Application, VIOTR” value (VIOTR, 70 g ai/ha) was “C (75-84)” and the “GR50, VIOTR” value (VIOTR, dose for 50 percent growth reduction, probit analysis) was 19 g ai/ha. For the same compound, the “GR80, VIOTR” value (VIOTR, dose for 80 percent growth reduction, probit analysis) was 56 g ai/ha and the “GR90, VIOTR” value (VIOTR, dose for 90 percent growth reduction, probit analysis) was 99 g ai/ha.
